Biological target: mGluR5 (MPEP binding site) (Homo sapiens (Human), UniProt P41594)
Experiment: Radioligand binding assay (MPEP site radioligand, membrane filtration)
Settings: 5 nM radioligand binding to MPEP site; Cheng-Prusoff
Description: Binding assays were performed as described in [J. A. O'Brien et al. Mol Pharmacol., 2003, 64, 731-740] with slight modifications, including that a radioligand that binds to the […] (MPEP) binding site was used in place of [^3H] MPEP. Briefly, after thawing, the membrane homogenates were resuspended in 50 mM Tris-HCl and 0.9% NaCl binding buffer at pH 7.4 to a final assay concentration of 20 μg protein/well for radioligand filtration binding. Incubations included 5 nM radioligand, membranes and either buffer or varying concentrations of compound. Samples were incubated for 60 min at room temperature with shaking. Non-specific binding was defined with 10 μM cold MPEP when using the radioligand. After incubation, samples were filtered over a GF/C filter (presoaked in 0.25% polyethyleneimine (PEI)) and then washed 4 times using a Tomtec® Harvester 96® Mach III cell harvester (Tomtec, Hamden, Conn.) with 0.5 mL ice-cold 50 mM Tris-HCl (pH 7.4).
IC50 values were derived from the inhibition curve and Ki values were calculated according to the Cheng and Prusoff equation of Ki=IC50/(1+[L]/Kd) described in [Y. Cheng and W. H. Prusoff Biochem. Pharmacal. 1973, 22, 3099-3108] where [L] is the concentration of radioligand and Kd is its dissociation constant at the receptor, derived from the saturation isotherm.

mGluR5 (MPEP binding site), sequence (P41594 21-1212): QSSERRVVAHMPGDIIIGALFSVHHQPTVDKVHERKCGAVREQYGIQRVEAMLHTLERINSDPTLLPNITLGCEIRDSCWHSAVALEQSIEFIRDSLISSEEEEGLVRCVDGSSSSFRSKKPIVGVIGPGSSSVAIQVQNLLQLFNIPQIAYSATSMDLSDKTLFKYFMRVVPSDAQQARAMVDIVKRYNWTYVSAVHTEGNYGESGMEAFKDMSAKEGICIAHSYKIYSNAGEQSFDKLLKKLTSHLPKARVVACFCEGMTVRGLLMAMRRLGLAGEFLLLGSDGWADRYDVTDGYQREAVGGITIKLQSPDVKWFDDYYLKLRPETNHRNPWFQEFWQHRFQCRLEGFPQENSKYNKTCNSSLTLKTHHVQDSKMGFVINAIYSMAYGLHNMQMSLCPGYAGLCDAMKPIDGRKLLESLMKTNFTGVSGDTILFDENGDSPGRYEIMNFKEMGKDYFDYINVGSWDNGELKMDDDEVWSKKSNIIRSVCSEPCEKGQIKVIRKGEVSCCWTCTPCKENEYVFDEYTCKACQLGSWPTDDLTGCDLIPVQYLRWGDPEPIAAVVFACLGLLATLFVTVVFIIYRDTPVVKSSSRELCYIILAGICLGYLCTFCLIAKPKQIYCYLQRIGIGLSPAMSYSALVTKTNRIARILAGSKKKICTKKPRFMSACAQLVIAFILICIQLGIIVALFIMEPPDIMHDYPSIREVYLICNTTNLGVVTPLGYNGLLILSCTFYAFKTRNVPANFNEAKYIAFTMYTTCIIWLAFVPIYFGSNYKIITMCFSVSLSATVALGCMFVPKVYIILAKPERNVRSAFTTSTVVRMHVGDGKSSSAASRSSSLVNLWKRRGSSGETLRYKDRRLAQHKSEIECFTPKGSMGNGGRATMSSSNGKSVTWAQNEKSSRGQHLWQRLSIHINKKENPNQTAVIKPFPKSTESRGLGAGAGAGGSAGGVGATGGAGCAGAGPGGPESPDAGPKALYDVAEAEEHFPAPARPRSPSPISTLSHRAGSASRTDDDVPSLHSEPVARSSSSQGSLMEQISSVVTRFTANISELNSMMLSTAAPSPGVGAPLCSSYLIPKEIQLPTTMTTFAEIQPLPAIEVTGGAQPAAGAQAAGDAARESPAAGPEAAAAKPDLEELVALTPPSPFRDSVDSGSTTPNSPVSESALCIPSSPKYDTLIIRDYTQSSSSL

Row | Compound | Ki [nM]
1 | O=C(N[C@@]12CCC[C@@](C#Cc3ccccn3)(CC1)C2)c1ccc(F)cn1 [Example 30, 5-fluoro-N-((1S,5R)-5-(pyridin-2-ylethynyl)bicyclo[3.2.1]octan-1-yl)picolinamide] | 35
2 | O=C(NC12CCCC(C#Cc3cnccn3)(CC1)C2)c1cccc(Cl)c1 (stereo not shown) [Example 13, 3-Chloro-N-(5-pyrazin-2-ylethynyl-bicyclo[3.2.1]oct-1-yl)-benzamide] | 91
3 | Cc1csc(C(=O)N[C@@]23CCC[C@@](C#Cc4cnccn4)(CC2)C3)n1 [Example 50, 4-methyl-N-((1S,5R)-5-(pyrazin-2-ylethynyl)bicyclo[3.2.1]octan-1-yl)thiazole-2-carboxamide] | 38
4 | Cc1cncc(C#CC23CC4CC(C2)CC(NC(=O)c2cccc(F)c2)(C4)C3)n1 [Example 56, 3-fluoro-N-[3-(6-methylpyrazin-2-ylethynyl)-1-adamantyl]benzamide] | 1300
5 | Cc1csc(C#CC23CC4CC(C2)CC(NC(=O)c2ccn(C)n2)(C4)C3)n1 [Example 81, 1-methyl-N-[3-(4-methylthiazol-2-ylethynyl)-1-adamantyl]-1H-pyrazole-3-carboxamide] | 120
6 | Cn1ccc(C(=O)N[C@@]23CCC[C@@](C#Cc4cnccn4)(CC2)C3)n1 [Example 49, 1-methyl-N-((1S,5R)-5-(pyrazin-2-ylethynyl)bicyclo[3.2.1]octan-1-yl)-1H-pyrazole-3-carboxamide] | 590
7 | Cn1ccc(C(=O)N[C@]23CCC[C@](C#Cc4cnccn4)(CC2)C3)n1 [Example 44, 1-methyl-N-((1R,5S)-5-(pyrazin-2-ylethynyl)bicyclo[3.2.1]octan-1-yl)-1H-pyrazole-3-carboxamide] | 34

Molecules with a lower Ki, results first:

Row | Ki [nM] | Compound
8 | 17 | Cc1nccc(C(=O)N[C@@]23CCC[C@@](C#Cc4ccccn4)(CC2)C3)n1 [Example 28, 2-methyl-N-((1S,5R)-5-(pyridin-2-ylethynyl)bicyclo[3.2.1]octan-1-yl)pyrimidine-4-carboxamide]
9 | 11 | O=C(N[C@]12CCC[C@](C#Cc3ccccn3)(CC1)C2)c1ccc(F)cn1 [Example 20, 5-fluoro-N-((1R,5S)-5-(pyridin-2-ylethynyl)bicyclo[3.2.1]octan-1-yl)picolinamide]
10 | 10 | Cc1nccc(C(=O)N[C@]23CCC[C@](C#Cc4ccccn4)(CC2)C3)n1 [Example 18, 2-methyl-N-((1R,5S)-5-(pyridin-2-ylethynyl)bicyclo[3.2.1]octan-1-yl)pyrimidine-4-carboxamide]
11 | 6.2 | Cc1csc(C(=O)N[C@]23CCC[C@](C#Cc4cnccn4)(CC2)C3)n1 [Example 45, 4-methyl-N-((1R,5S)-5-(pyrazin-2-ylethynyl)bicyclo[3.2.1]octan-1-yl)thiazole-2-carboxamide]
12 | 4.7 | O=C(NC12CC3CC(CC(C#Cc4ccccn4)(C3)C1)C2)c1cnccn1 [Example 71, N-[3-(pyridin-2-ylethynyl)-1-adamantyl]pyrazine-2-carboxamide]
13 | 3 | O=C(NC12CCCC(C#Cc3cccc(F)c3)(CC1)C2)c1cnccn1 (stereo not shown) [Example 3, pyrazine-2-carboxylic acid [5-(3-fluoro-phenylethynyl)-bicyclo[3.2.1]oct-1-yl]-amide]

Reference: patent US9212165B2, “Bicarbocyclic and tricarbocyclic ethynyl derivatives and uses of same” (H. Lundbeck A/S, priority 2011, dated 2015)
